# Assay results taken from patent US20030040510A1, “Selective estrogen receptor modulators in combination with estrogens” (Endorecherche, Inc., priority 2000, published 2003).
# Values joined by “and” are separate entries in the source; they are usually repeats but may differ in a detail not shown here. Identical values can stand only once.
# Experiment: Tissue distribution of radioactivity after a single oral dose of ^14C-EM-800
# Format: in vivo, female Long-Evans rats
# Details: for Drug-derived radioactivity, brain / Drug-derived radioactivity, blood / Drug-derived radioactivity, plasma: 20 mg/kg
compound,measurement,setting,value
CC1=C(c2ccc(OC(=O)C(C)(C)C)cc2)[C@H](c2ccc(OCCN3CCCCC3)cc2)Oc2cc(OC(=O)C(C)(C)C)ccc21 [^14C-EM-800],Radioactivity in the brain lower than in liver,2 hours,412
same,Radioactivity in the brain lower than in plasma,2 hours,13 times
same,Radioactivity in the brain lower than in the blood,2 hours,8.4 times
same,Radioactivity in the brain lower than in the uterus,2 hours,21 times
same,"Drug-derived radioactivity, liver","2 hr, 20 mg/kg oral",7.2547 μg EM-800 equiv/g tissue
same,"Drug-derived radioactivity, uterus","2 hr, 20 mg/kg oral",0.3675 μg EM-800 equiv/g tissue
same,"Drug-derived radioactivity, liver","4 hr, 20 mg/kg oral",3.2201 μg EM-800 equiv/g tissue
same,"Drug-derived radioactivity, uterus","4 hr, 20 mg/kg oral",0.2866 μg EM-800 equiv/g tissue
same,"Drug-derived radioactivity, liver","6 hr, 20 mg/kg oral",2.7462 μg EM-800 equiv/g tissue
same,"Drug-derived radioactivity, uterus","6 hr, 20 mg/kg oral",0.2757 μg EM-800 equiv/g tissue
same,"Drug-derived radioactivity, liver","8 hr, 20 mg/kg oral",2.7748 μg EM-800 equiv/g tissue
same,"Drug-derived radioactivity, uterus","8 hr, 20 mg/kg oral",0.3332 μg EM-800 equiv/g tissue
same,"Drug-derived radioactivity, liver","12 hr, 20 mg/kg oral",1.8232 μg EM-800 equiv/g tissue
same,"Drug-derived radioactivity, uterus","12 hr, 20 mg/kg oral",0.2407 μg EM-800 equiv/g tissue
same,"Drug-derived radioactivity, liver","24 hr, 20 mg/kg oral",0.6391 μg EM-800 equiv/g tissue
same,"Drug-derived radioactivity, uterus","24 hr, 20 mg/kg oral",0.0837 μg EM-800 equiv/g tissue
same,"Drug-derived radioactivity, brain","24 hr, 20 mg/kg oral",0 ng EM-800 equiv/g tissue and 0 μg EM-800 equiv/g tissue
same,"Drug-derived radioactivity, liver","36 hr, 20 mg/kg oral",0.4034 μg EM-800 equiv/g tissue
same,"Drug-derived radioactivity, uterus","36 hr, 20 mg/kg oral",0.0261 μg EM-800 equiv/g tissue
same,"Drug-derived radioactivity, blood","36 hr, 20 mg/kg oral",0 ng EM-800 equiv/g tissue and 0 μg EM-800 equiv/g tissue
same,"Drug-derived radioactivity, brain","36 hr, 20 mg/kg oral",0 ng EM-800 equiv/g tissue and 0 μg EM-800 equiv/g tissue
same,"Drug-derived radioactivity, plasma","36 hr, 20 mg/kg oral",0 ng EM-800 equiv/g tissue and 0 μg EM-800 equiv/g tissue
same,"Drug-derived radioactivity, liver","48 hr, 20 mg/kg oral",0.2196 μg EM-800 equiv/g tissue
same,"Drug-derived radioactivity, uterus","48 hr, 20 mg/kg oral",0.0238 μg EM-800 equiv/g tissue
same,"Drug-derived radioactivity, blood","48 hr, 20 mg/kg oral",0 ng EM-800 equiv/g tissue and 0 μg EM-800 equiv/g tissue
same,"Drug-derived radioactivity, brain","48 hr, 20 mg/kg oral",0 ng EM-800 equiv/g tissue and 0 μg EM-800 equiv/g tissue
same,"Drug-derived radioactivity, plasma","48 hr, 20 mg/kg oral",0 ng EM-800 equiv/g tissue and 0 μg EM-800 equiv/g tissue
same,"Drug-derived radioactivity, liver","72 hr, 20 mg/kg oral",0.1326 μg EM-800 equiv/g tissue
same,"Drug-derived radioactivity, uterus","72 hr, 20 mg/kg oral",0 μg EM-800 equiv/g tissue
same,"Drug-derived radioactivity, blood","72 hr, 20 mg/kg oral",0 ng EM-800 equiv/g tissue and 0 μg EM-800 equiv/g tissue
same,"Drug-derived radioactivity, brain","72 hr, 20 mg/kg oral",0 ng EM-800 equiv/g tissue and 0 μg EM-800 equiv/g tissue
same,"Drug-derived radioactivity, plasma","72 hr, 20 mg/kg oral",0 ng EM-800 equiv/g tissue and 0 μg EM-800 equiv/g tissue
same,"Drug-derived radioactivity, liver","96 hr, 20 mg/kg oral",0.0944 μg EM-800 equiv/g tissue
same,"Drug-derived radioactivity, uterus","96 hr, 20 mg/kg oral",0 μg EM-800 equiv/g tissue
same,"Drug-derived radioactivity, blood","96 hr, 20 mg/kg oral",0 ng EM-800 equiv/g tissue and 0 μg EM-800 equiv/g tissue
same,"Drug-derived radioactivity, brain","96 hr, 20 mg/kg oral",0 ng EM-800 equiv/g tissue and 0 μg EM-800 equiv/g tissue
same,"Drug-derived radioactivity, plasma","96 hr, 20 mg/kg oral",0 ng EM-800 equiv/g tissue and 0 μg EM-800 equiv/g tissue
same,"Drug-derived radioactivity, liver","168 hr, 20 mg/kg oral",0.0348 μg EM-800 equiv/g tissue
same,"Drug-derived radioactivity, uterus","168 hr, 20 mg/kg oral",0 μg EM-800 equiv/g tissue
same,"Drug-derived radioactivity, blood","168 hr, 20 mg/kg oral",0 ng EM-800 equiv/g tissue and 0 μg EM-800 equiv/g tissue
same,"Drug-derived radioactivity, brain","168 hr, 20 mg/kg oral",0 ng EM-800 equiv/g tissue and 0 μg EM-800 equiv/g tissue
same,"Drug-derived radioactivity, plasma","168 hr, 20 mg/kg oral",0 ng EM-800 equiv/g tissue and 0 μg EM-800 equiv/g tissue
same,Total drug-derived radioactivity in the brain,"female Long-Evans rats, 20 mg/kg oral",not detected after 12 hr post dose
